Data on six compounds can be found in PMC8068801, “Novel Benzenesulfonate Scaffolds with a High Anticancer Activity and G2/M Cell Cycle Arrest” (Cancers, 2021).

Read-outs that look alike come from different tables or passages of the source.

The subject of one assay is NHDF cells. Description: MTS cytotoxicity assay, normal fibroblasts NHDF. It is filed as cell-based. The conditions noted are these: NHDF normal human fibroblasts, 72 h incubation. An excerpt:
(§1) M. Rusin from the Maria Sklodowska-Curie Memorial Cancer Centre and Institute of Oncology in Gliwice, Poland. […] G. Kramer-Marek from the Institute of Cancer Research in London, United Kingdom. The human suspension chronic myelogenous leukemia cell line K562 and pancreas ductal adenocarcinoma cell line PANC-1 were purchased from Sigma-Aldrich (St. Louis, MO, USA), while the normal human dermal fibroblasts cell line NHDF were purchased from PromoCell. […] Each medium contained a combination of two antibiotics: penicillin and streptomycin (1% v/v; Gibco). All of these cell lines were grown under standard conditions at 37 °C with a 5% CO2 humidified atmosphere. Moreover, all of the cell lines were routinely tested for mycoplasma using the PCR technique with specific Mycoplasma primers to confirm that there was no contamination.
(§2) The assay was performed following a 72 h incubation with the various concentrations of the tested compounds. Then, 100 µL DMEM without phenol red with 20 µL of the CellTiter 96®AQueous One Solution-MTS (Promega, Promega, WI, USA) was added to each well and incubated for 1 h or 3 h (PANC-1) at 37 °C. The optical densities of the samples were measured at 490 nm using a multi-plate reader (Synergy 4, BioTek, Winooski, VT, USA). […] Each individual compound was tested in triplicate in a single experiment with each experiment being performed three or four times.
(In general: Tetrazolium assays rely on reduction of a dye to a coloured formazan, in cell work by metabolically active cells.)

Another assay deals with MCF-7 cells. Put plainly: MTS cytotoxicity assay, MCF-7. Conditions: for IC50: Homo sapiens, MCF7, MCF-7, 72 h incubation, MTS; for Selectivity index, MCF-7: NHDF vs MCF-7. Type of assay: cell-based, human.
Excerpt: as §1, §2

A further assay concerns HCT 116 p53^+/+ cells. Description: MTS cytotoxicity assay, HCT 116 p53+/+. It is filed as cell-based, human. The conditions noted are these: for IC50: Homo sapiens, HCT 116 p53^+/+, 72 h incubation, MTS.
Excerpt: as §1, §2

For assay [1], the system named is U-251 cells. Put plainly: MTS cytotoxicity assay, U-251. It is filed as cell-based, human. The conditions noted are these: for IC50: Homo sapiens, U-251, 72 h incubation, MTS.
Excerpt: as §1, §2

In a further assay the test system is K562 cells. Put plainly: MTS cytotoxicity assay, K562. Type of assay: cell-based, human. The conditions noted are these: for IC50: Homo sapiens, K562, 72 h incubation, MTS; for Selectivity index, K562: normal fibroblasts NHDF vs K562.
Excerpt: as §1, §2

The test system of assay [2] is A549 cells. Put plainly: MTS cytotoxicity assay, A549. Type of assay: cell-based, human. Conditions: for IC50: A549, 72 h incubation, MTS; for Selectivity index, A549: NHDF vs A549.
Excerpt: as §1, §2

In a further assay the target is T1, ABL1 (Homo sapiens, UniProt P00519).
T1 construct: purchased Promega
Put plainly: Tyrosine kinase assay (Kinase Selectivity TK-2, ADP-Glo). It is filed as biochemical. The conditions noted are these: read-out: Inhibitory Effect of the Tyrosine Kinase Activity, ABL1. The protocol:
(§3) Assays using the Kinase Selectivity TK-2 profiling systems and ADP-Glo Kinase Assay (both from Promega) were performed to determine the inhibition of the non-receptor tyrosine kinases. The protocol was previously designed and described by our group in reports. The experiments were performed at least four times. The data are expressed as the percentage of the inhibition activity of tyrosine kinase after treatment with the tested derivatives.
In general terms: ADP-Glo turns the ADP formed in a reaction into a luminescent signal.

The target of a further assay is T2, Lck (Homo sapiens, UniProt P06239).
T2 construct: purchased Promega
The description is as above. It is filed as biochemical. The conditions noted are these: read-out: Inhibitory Effect of the Tyrosine Kinase Activity, Lck. The protocol: as §3

A further assay concerns the target T3, CSK (Homo sapiens, UniProt P41240).
T3 construct: purchased Promega
The description is as above. Type of assay: biochemical. Conditions: read-out: Inhibitory Effect of the Tyrosine Kinase Activity, CSK. The protocol: as §3

The next assay addresses T4, Lyn B (Homo sapiens, UniProt P07948).
T4 construct: purchased Promega
The description is as above. Type of assay: biochemical. The conditions noted are these: read-out: Inhibitory Effect of the Tyrosine Kinase Activity, Lyn B. Here is the method:
as §3

The target in a further assay is T5, BRK (Homo sapiens, UniProt Q13882).
T5 construct: purchased Promega
The assay is described as above. Conditions: read-out: Inhibitory Effect of the Tyrosine Kinase Activity, BRK. It is filed as biochemical. The protocol: as §3

Another assay deals with T6, Fyn A (Homo sapiens, UniProt P06241).
T6 construct: purchased Promega
The description is as above. The conditions noted are these: read-out: Inhibitory Effect of the Tyrosine Kinase Activity, Fyn A. It is filed as biochemical. The protocol: as §3

Another assay has as its target T7, BTK (Homo sapiens, UniProt Q06187).
T7 construct: purchased Promega
Described as above. Type of assay: biochemical. The conditions noted are these: read-out: Inhibitory Effect of the Tyrosine Kinase Activity, BTK. Here is the method: as §3

A further assay deals with T8, Src (Homo sapiens, UniProt P12931).
T8 construct: purchased Promega
The description is as above. Type of assay: biochemical. Conditions: read-out: Inhibitory Effect of the Tyrosine Kinase Activity, Src. The protocol:
as §3

The next assay has as its system HCT 116 p53^−/− cells. Description: MTS cytotoxicity assay, HCT 116 p53-/-. Type of assay: cell-based, human. Conditions: for IC50: Homo sapiens, HCT 116 p53^−/−, 72 h incubation, MTS; for Selectivity index, HCT 116 p53 −/−: NHDF vs HCT 116 p53 −/−.
Excerpt: as §1, §2

In another assay the test system is PANC-1 cells. Description: MTS cytotoxicity assay, PANC-1. Type of assay: cell-based, human. Conditions: for IC50: Homo sapiens, PANC-1, 72 h incubation, MTS.
Excerpt: as §1, §2

Assay [3] concerns A549 cells. Also noted: method as in PMID 24530495. The conditions noted are these: cited from earlier work.
Assay [4] has as its system U-251 cells. Description: Cell cycle assay (Muse Cell-Cycle Kit), U-251. Type of assay: cell-based, human. Conditions: U-251, 0.13 µM to 2 µM, 24 h; 32.3% in untreated cells. Here is the method: The K562, U-251 and NHDF cells were seeded in 3 cm Petri dishes (Nunc) at a density of 250,000 cells per well and incubated under standard conditions at 37 °C for 24 h. […] After a 24 h treatment, the assays were performed using a Muse Cell-Cycle Kit (Millipore, Burlington, MA, USA) according to the supplier’s instructions. Briefly, the cells were collected, washed with cold PBS and centrifuged at 300 g for 5 min. Afterwards, the cells were fixed in ice cold 70% ethanol and stored at −20 °C overnight. The next day, the cells were washed with cold PBS, centrifuged and resuspended in 200 μL of the Muse™ Cell Cycle Reagent. The samples were incubated for 30 min at room temperature in the dark. After staining, the cellular subpopulation values in the individual cell cycle phases were estimated using a cell cycle analysis using a Muse Cell Analyzer (Millipore). The experiments were performed at least four times.

T4 sequence (P07948 1-491 isoform P07948-2): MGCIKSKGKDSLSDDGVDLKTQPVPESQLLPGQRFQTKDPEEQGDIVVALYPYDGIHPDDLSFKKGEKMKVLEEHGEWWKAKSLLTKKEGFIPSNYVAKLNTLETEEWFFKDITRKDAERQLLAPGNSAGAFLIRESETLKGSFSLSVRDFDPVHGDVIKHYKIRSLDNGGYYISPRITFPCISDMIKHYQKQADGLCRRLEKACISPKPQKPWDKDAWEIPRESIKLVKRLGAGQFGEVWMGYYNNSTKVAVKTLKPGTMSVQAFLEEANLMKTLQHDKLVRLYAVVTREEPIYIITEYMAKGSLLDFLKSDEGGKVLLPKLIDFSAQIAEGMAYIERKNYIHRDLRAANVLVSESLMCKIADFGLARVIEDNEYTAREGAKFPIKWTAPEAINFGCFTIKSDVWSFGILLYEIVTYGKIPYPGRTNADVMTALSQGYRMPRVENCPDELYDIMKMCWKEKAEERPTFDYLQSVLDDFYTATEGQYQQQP
T3 sequence (P41240 whole entry): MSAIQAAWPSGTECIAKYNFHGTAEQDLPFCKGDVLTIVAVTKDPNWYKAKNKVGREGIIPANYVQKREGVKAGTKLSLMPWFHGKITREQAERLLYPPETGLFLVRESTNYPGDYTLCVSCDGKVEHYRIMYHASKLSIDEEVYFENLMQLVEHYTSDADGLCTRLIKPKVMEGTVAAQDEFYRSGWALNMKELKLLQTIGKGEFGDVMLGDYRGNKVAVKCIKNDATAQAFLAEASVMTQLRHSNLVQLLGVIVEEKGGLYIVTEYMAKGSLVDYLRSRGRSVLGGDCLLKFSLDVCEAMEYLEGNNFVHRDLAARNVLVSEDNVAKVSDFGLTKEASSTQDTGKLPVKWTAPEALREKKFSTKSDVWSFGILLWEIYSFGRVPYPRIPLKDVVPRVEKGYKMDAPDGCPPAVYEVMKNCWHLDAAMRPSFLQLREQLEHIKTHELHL
T7 sequence (Q06187 whole entry): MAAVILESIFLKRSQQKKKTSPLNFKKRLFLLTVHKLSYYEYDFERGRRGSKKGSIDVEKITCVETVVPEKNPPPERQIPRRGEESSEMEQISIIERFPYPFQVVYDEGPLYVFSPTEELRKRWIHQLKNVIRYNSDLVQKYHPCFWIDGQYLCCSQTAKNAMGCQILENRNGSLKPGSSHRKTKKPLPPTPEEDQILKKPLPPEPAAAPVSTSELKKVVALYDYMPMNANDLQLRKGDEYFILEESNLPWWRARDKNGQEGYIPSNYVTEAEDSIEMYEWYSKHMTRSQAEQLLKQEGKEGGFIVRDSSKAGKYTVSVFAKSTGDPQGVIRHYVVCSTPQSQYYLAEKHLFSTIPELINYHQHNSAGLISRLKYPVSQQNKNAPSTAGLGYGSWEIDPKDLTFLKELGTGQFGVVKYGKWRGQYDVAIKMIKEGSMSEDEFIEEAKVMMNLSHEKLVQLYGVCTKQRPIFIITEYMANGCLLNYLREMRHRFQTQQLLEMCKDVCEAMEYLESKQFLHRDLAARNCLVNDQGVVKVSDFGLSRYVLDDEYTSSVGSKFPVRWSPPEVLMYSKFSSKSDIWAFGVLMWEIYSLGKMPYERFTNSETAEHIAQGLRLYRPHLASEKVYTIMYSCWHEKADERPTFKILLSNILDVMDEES
T1 sequence (P00519 whole entry): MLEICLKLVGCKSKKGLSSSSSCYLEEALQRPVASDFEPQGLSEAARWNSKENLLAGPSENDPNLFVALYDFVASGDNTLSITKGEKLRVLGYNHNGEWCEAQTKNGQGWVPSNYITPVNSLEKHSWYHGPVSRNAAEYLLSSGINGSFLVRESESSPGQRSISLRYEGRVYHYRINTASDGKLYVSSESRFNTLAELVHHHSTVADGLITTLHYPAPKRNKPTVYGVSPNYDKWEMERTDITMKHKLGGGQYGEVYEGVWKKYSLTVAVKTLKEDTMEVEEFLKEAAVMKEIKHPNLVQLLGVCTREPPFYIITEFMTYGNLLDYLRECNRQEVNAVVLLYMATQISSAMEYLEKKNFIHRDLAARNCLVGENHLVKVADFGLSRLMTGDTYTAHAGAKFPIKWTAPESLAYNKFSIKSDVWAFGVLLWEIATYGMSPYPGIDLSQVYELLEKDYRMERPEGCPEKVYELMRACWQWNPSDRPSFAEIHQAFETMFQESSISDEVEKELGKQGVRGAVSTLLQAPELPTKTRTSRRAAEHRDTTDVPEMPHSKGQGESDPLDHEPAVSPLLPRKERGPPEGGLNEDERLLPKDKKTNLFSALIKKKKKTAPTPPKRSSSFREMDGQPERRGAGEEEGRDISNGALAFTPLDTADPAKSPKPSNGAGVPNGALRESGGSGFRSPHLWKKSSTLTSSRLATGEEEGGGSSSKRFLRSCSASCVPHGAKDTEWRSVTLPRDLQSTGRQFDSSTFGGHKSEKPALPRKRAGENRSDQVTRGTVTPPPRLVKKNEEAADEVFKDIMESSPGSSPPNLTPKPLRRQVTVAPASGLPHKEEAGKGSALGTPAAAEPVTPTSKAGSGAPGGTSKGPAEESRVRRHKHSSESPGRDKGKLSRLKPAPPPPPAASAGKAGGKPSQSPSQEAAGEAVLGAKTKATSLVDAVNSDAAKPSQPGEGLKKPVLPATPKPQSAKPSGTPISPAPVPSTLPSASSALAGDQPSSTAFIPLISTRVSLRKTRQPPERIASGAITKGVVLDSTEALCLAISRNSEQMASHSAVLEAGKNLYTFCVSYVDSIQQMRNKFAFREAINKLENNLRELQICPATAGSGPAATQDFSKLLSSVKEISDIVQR
T6 sequence (P06241 whole entry): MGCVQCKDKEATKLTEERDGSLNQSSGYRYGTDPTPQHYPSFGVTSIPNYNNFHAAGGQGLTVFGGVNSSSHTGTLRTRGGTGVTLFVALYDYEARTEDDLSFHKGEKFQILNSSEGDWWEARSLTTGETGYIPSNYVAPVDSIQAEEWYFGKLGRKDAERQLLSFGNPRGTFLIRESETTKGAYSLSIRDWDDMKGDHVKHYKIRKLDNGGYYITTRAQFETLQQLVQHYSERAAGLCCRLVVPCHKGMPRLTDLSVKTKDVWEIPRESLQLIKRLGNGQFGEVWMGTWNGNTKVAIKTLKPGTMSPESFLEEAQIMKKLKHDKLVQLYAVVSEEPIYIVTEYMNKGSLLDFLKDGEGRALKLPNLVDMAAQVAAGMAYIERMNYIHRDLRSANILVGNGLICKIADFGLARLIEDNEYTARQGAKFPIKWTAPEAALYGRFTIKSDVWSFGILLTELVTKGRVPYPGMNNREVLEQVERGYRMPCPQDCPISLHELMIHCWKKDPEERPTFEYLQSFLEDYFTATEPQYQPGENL
T8 sequence (P12931 whole entry): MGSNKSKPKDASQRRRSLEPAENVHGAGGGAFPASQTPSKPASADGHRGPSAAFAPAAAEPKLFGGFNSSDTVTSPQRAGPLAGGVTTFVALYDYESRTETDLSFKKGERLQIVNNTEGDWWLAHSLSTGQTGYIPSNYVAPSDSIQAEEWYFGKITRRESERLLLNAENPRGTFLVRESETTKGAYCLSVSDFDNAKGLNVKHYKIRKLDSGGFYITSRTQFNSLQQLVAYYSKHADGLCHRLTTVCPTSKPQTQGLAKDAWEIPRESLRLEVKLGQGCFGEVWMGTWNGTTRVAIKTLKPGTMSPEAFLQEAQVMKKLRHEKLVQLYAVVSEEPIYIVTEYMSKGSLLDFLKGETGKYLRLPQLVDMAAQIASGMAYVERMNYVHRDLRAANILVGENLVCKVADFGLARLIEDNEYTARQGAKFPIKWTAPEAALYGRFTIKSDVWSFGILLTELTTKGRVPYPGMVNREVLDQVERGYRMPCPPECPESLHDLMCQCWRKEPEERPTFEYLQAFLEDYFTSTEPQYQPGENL
T5 sequence (Q13882 whole entry): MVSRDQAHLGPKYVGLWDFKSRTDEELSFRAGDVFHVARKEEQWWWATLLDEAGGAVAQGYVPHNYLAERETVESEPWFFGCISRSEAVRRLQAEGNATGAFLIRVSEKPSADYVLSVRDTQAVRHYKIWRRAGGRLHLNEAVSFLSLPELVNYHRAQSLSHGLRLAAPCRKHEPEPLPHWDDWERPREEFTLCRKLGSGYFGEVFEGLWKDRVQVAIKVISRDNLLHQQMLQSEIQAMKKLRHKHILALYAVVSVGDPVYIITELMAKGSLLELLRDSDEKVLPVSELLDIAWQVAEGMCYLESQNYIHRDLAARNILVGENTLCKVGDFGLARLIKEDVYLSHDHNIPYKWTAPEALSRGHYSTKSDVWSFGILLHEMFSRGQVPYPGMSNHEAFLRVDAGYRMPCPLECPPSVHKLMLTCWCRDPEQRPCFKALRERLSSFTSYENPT
T2 sequence (P06239 whole entry): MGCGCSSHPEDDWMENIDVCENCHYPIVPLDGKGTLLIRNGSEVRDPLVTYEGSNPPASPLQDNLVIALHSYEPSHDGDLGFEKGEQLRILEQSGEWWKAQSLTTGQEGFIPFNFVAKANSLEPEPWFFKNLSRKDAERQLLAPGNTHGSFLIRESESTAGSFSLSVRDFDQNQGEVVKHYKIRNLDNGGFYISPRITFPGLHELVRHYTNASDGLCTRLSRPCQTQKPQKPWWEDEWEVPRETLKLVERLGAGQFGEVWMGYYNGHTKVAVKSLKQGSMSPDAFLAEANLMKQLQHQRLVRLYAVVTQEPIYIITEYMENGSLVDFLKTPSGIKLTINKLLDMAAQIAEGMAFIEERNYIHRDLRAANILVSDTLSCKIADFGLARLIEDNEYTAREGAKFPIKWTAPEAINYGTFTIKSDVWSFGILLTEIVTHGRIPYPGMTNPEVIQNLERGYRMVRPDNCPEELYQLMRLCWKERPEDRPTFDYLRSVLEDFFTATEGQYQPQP

Broadly, the IC50 is the concentration needed to halve the response being measured. Take `COc1ccccc1/C=C/c1nc(OS(=O)(=O)c2ccc(C)cc2)c2ccc(Cl)cc2n1` [BS3, 7-chloro-2-((E)-2-(2-methoxyphenyl)ethenyl)quinazolin-4-yl 4-methylbenzenesulfonate]: the IC50 with NHDF cells was 9.42 ± 1.65 µM; in the assay with MCF-7 cells, 4.6 ± 1.02 µM; in the assay on HCT 116 p53^+/+ cells, 0.363 ± 0.028 µM; with U-251 cells [1], 1.76 ± 0.388 µM; in the assay with K562 cells, 0.078 ± 0.027 µM; with A549 cells [2], 7.65 ± 0.987 µM. The IC50 with A549 cells [2] (Homo sapiens, A549, 72 h) was found to be 7.65 µM; in the assay with HCT 116 p53^−/− cells, 0.239 ± 0.03 µM; in the assay on PANC-1 cells, 0.097 ± 0.03 µM. Moreover, the “Selectivity index, MCF-7” value in the assay on MCF-7 cells stood at 2.05. Besides, the “Selectivity index, HCT 116 p53+/+” value with HCT 116 p53^+/+ cells (NHDF vs HCT 116 p53+/+) stood at 25.94. Further, the “Selectivity index, U-251” value with U-251 cells [1] (NHDF vs U-251) is 5.36. Further, the “Selectivity index, K562” value with K562 cells turned out to be 120.71. Also, the “Selectivity index, A549” value in the assay with A549 cells [2] was found to be 1.23. For the same compound, the inhibition at 0.5 µM at ABL1 stood at 0%; on Lck, 42.6%; at CSK, 0%; on Lyn B, 0%; at BRK it was 26.5%; at Fyn A it was 34.1%. Further, the inhibition at 0.5 µM at BTK is 30.7%; on Src, 2.73%. Besides, in the assay with HCT 116 p53^−/− cells, the “Selectivity index, HCT 116 p53 −/−” value is 39.39. In addition, the “Selectivity index, PANC-1” value with PANC-1 cells (NHDF vs PANC-1) is 97.06.
Regarding `COc1ccc(/C=C/c2nc(OS(=O)(=O)c3ccc(C)cc3)c3ccccc3n2)cc1` [BS5, 2-((E)-2-(4-methoxyphenyl)ethenyl)quinazolin-4-yl 4-methylbenzenesulfonate], the IC50 was above 25 µM with NHDF cells; above 25 µM with MCF-7 cells; above 25 µM in the assay on HCT 116 p53^+/+ cells; above 25 µM with U-251 cells [1]; 10.2 ± 0.819 µM in the assay with K562 cells; above 25 µM in the assay with A549 cells [2] (Homo sapiens, A549, 72 h). Besides, the IC50 in the assay with HCT 116 p53^−/− cells and with PANC-1 cells was above 25 µM in each case. Besides, the “Selectivity index, K562” value in the assay with K562 cells stood at 2.45. In the assay on A549 cells [2], the “Selectivity index, A549” value is listed as 1.00. In addition, the inhibition at 0.5 µM amounted to 0% at ABL1; 11.2% on Lck; 20.1% at CSK; 0% at Lyn B; 20.2% at BRK; 0% at Fyn A. Also, the inhibition at 0.5 µM at BTK is 8.59%; on Src it was 0%.
Consider `COc1ccc(/C=C/c2nc(OS(=O)(=O)c3ccc(C)cc3)c3ccccc3n2)c(OC)c1` [BS6, 2-((E)-2-(2,4-dimethoxyphenyl)ethenyl)quinazolin-4-yl 4-methylbenzenesulfonate], for which the half-inhibitory concentration (IC50) is above 25 µM in the assay on NHDF cells; 9.79 ± 1.23 µM in the assay with MCF-7 cells; above 25 µM in the assay on HCT 116 p53^+/+ cells; above 25 µM with U-251 cells [1]; 2.7 ± 0.519 µM with K562 cells; above 25 µM in the assay on A549 cells [2] (Homo sapiens, A549, 72 h). For the same compound, the IC50 was 21.7 ± 1.19 µM in the assay on HCT 116 p53^−/− cells and above 25 µM with PANC-1 cells. Moreover, in the assay with MCF-7 cells, the “Selectivity index, MCF-7” value came to 2.55. The “Selectivity index, K562” value in the assay with K562 cells was 9.26. The “Selectivity index, A549” value in the assay on A549 cells [2] came to 1.00. Also, the inhibition at 0.5 µM turned out to be 0% on ABL1; 37.3% at Lck; 21.1% at CSK; 0% on Lyn B; 0% on BRK; 62.6% at Fyn A. In addition, the inhibition at 0.5 µM on BTK came to 17.9%; on Src, 0%. For the same compound, the “Selectivity index, HCT 116 p53 −/−” value with HCT 116 p53^−/− cells is recorded as 1.15.
For the compound `COc1ccc(/C=C/c2nc(NCCCN(C)C)c3ccccc3n2)cc1` [CP-31398, reference compound], the half-maximal inhibitory concentration (IC50) was 12.3 ± 0.54 µM with NHDF cells; 27 ± 2.1 µM in the assay on MCF-7 cells; 18.6 ± 0.92 µM with HCT 116 p53^+/+ cells; 18.8 ± 1.65 µM with U-251 cells [1]; 3.09 ± 0.36 µM in the assay on K562 cells; above 25 µM with A549 cells [2] (Homo sapiens). Besides, the IC50 was 26.3 ± 1.41 µM with HCT 116 p53^−/− cells and above 25 µM with PANC-1 cells.
For `COc1c(NS(=O)(=O)c2ccc(C)cc2)cc(-c2ccc3ncnc(N4CCOCC4)c3c2)cc1C(N)=O` [IV], the IC50 in the assay on A549 cells [3] is 2.18 µM.
As to `CC(=O)O[C@H]1C(=O)[C@@]2(C)[C@H]([C@H](OC(=O)c3ccccc3)[C@]3(O)C[C@H](OC(=O)[C@H](O)[C@@H](NC(=O)c4ccccc4)c4ccccc4)C(C)=C1C3(C)C)[C@]1(OC(C)=O)CO[C@@H]1C[C@@H]2O` [paclitaxel, reference compound], in the assay on U-251 cells [4], the “Fraction of cells in the G2/M phase” value was “about 69.9%”.
